Assay results published in the supplement of paper PMC11061612.

Legend:
Test in all cases: combination Emax (second highest fraction inhibited in the dose matrix, 72 h); higher = more inhibition; extreme values may be limits of the assay
[1] = tested on: SW1088 (Low Grade Glioma)
Summary of the method: (§1)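 Cell lines grown in DMEM/F12 or RPMI with 10% FBS were plated in 1536-well plates and held 24 hours at 37°C, 5% CO2 before 72 hours of exposure to two-drug dose matrices, with DMSO typically at 0.2%. CellTiter-Glo 2.0 luminescence gave viability, which was converted to inhibition. Vehicle wells were set to 0 and blank wells to 1. Combination Emax is the second-highest inhibition in the matrix, and Bliss excess is the observed combination effect minus the expected EA + EB − EA·EB, where EA and EB are the single-agent effects.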

[2] = tested on: COR-L95 (Small Cell Lung Carcinoma)
Summary of the method: as §1

[3] = tested on: CFPAC-1 (Pancreatic Carcinoma)
Summary of the method: as §1

[4] = tested on: TGBC24TKB (Biliary Tract Carcinoma)
Summary of the method: as §1

[5] = tested on: SUIT-2 (Pancreatic Carcinoma)
Summary of the method: as §1

[6] = tested on: LU-99A (Non-Small Cell Lung Carcinoma)
Summary of the method: as §1

[7] = tested on: SNU-C5 (Colorectal Carcinoma)
Summary of the method: as §1

[8] = tested on: SW1783 (Low Grade Glioma)
Summary of the method: as §1

[9] = tested on: KARPAS-620 (Plasma Cell Myeloma)
Summary of the method: as §1

CAL-78 (Chondrosarcoma) = tested on: CAL-78 (Chondrosarcoma)
Summary of the method: as §1

[10] = tested on: COR-L23 (Non-Small Cell Lung Carcinoma)
Summary of the method: as §1

J82 (Bladder Carcinoma) = tested on: J82 (Bladder Carcinoma)
Summary of the method: as §1

[11] = tested on: HPAC (Pancreatic Carcinoma)
Summary of the method: as §1

[12] = tested on: HT-29 (Colorectal Carcinoma)
Summary of the method: as §1

ES7 (Ewing's Sarcoma) = tested on: ES7 (Ewing's Sarcoma)
Summary of the method: as §1

[13] = tested on: TE-5 (Esophageal Squamous Cell Carcinoma)
Summary of the method: as §1

[14] = tested on: MDA-MB-231 (Breast Carcinoma)
Summary of the method: as §1

[15] = tested on: G-292-Clone-A141B1 (Osteosarcoma)
Summary of the method: as §1

[16] = tested on: NALM-6 (B-Lymphoblastic Leukemia)
Summary of the method: as §1

[17] = tested on: HCC2157 (Breast Carcinoma)
Summary of the method: as §1

| Structure (SMILES) | combination Emax [1] | combination Emax [2] | combination Emax [3] | combination Emax [4] | combination Emax [5] | combination Emax [6] | combination Emax [7] | combination Emax [8] | combination Emax [9] | combination Emax (CAL-78 (Chondrosarcoma)) | combination Emax [10] | combination Emax (J82 (Bladder Carcinoma)) | combination Emax [11] | combination Emax [12] | combination Emax (ES7 (Ewing's Sarcoma)) | combination Emax [13] | combination Emax [14] | combination Emax [15] | combination Emax [16] | combination Emax [17] |
| --- | --- | --- | --- | --- | --- | --- | --- | --- | --- | --- | --- | --- | --- | --- | --- | --- | --- | --- | --- | --- |
| C=CCn1c(=O)c2cnc(Nc3ccc(N4CCN(C)CC4)cc3)nc2n1-c1cccc(C(C)(C)O)n1 [AZD1775] + C1CN(CCC1(C(=O)N[C@@H](CCO)C2=CC=C(C=C2)Cl)N)C3=NC=NC4=C3C=CN4 [Capivasertib] (first compound max 3 µM, partner max 3 µM) | 0.723 | 0.666 | 0.723 | 0.811 | 0.586 | 0.623 | 0.795 | 0.688 | 0.857 | 0.733 | 0.895 | 0.468 | 0.636 | 0.834 | 0.808 | 0.66 | 0.624 | 0.492 | 0.985 |  |
| CC(=O)c1c(C)c2cnc(Nc3ccc(N4CCNCC4)cn3)nc2n(C2CCCC2)c1=O [Palbociclib] + CN(CC[C@H](CSC1=CC=CC=C1)NC2=C(C=C(C=C2)S(=O)(=O)NC(=O)C3=CC=C(C=C3)N4CCC(CC4)[C@H](C5=CC=CC=C5C6=CC=C(C=C6)Cl)O)S(=O)(=O)C(F)(F)F)CCO [AZD4320] (first compound max 10 µM, 7x7, partner max 1 µM) |  |  | 0.419 | 0.736 | 0.354 | 0.297 | 0.388 |  |  | 0.709 | 0.298 | 0.22 | 0.497 | 0.498 |  |  |  |  |  | 0.994 |
| Cc1c2c(nn1C)CSCc1cc(n(C)n1)CSc1cc(c3ccccc3c1)OCCCc1c(C(=O)O)n(C)c3c-2c(Cl)ccc13 [AZD5991] + CN(C)CCCOc1ccc(-c2ccc3ncc4c(c3c2)n(C2CCOCC2)c(=O)n4C)cn1 [AZD0156] (first compound max 1 µM, 7x7, partner max 1 µM) | 0.242 | 0.378 | 0.209 | 0.165 | 0.217 | 0.334 | 0.196 | 0.218 | 1 | 0.786 |  | 0.22 | 0.586 | 0.254 | 0.726 | 0.266 | 0.351 | 0.332 | 0.408 | 0.98 |
| C=CCn1c(=O)c2cnc(Nc3ccc(N4CCN(C)CC4)cc3)nc2n1-c1cccc(C(C)(C)O)n1 [AZD1775] + O=C(c1cc(Cc2n[nH]c(=O)c3ccccc23)ccc1F)N1CCN(C(=O)C2CC2)CC1 [Olaparib] (first compound max 1 µM, partner max 10 µM) | 0.59 | 0.639 | 0.476 | 0.687 | 0.607 | 0.546 | 0.567 | 0.342 | 0.489 | 0.446 | 0.224 | 0.195 | 0.649 | 0.818 |  | 0.411 | 0.582 | 0.294 | 0.94 | 0.892 |
| C[C@@H](c1ccc2nccn2c1)n1nnc2ncc(-c3cnn(C)c3)nc21 [Savolitinib] + CN(CC[C@H](CSC1=CC=CC=C1)NC2=C(C=C(C=C2)S(=O)(=O)NC(=O)C3=CC=C(C=C3)N4CCC(CC4)[C@H](C5=CC=CC=C5C6=CC=C(C=C6)Cl)O)S(=O)(=O)C(F)(F)F)CCO [AZD4320] (first compound max 1 µM, 7x7, partner max 1 µM) |  |  | 0.143 | 0.561 | 0.241 | 0.245 | 0.173 |  |  | 0.457 | 0.184 | 0.604 | 0.343 | 0.172 |  |  |  |  |  | 0.934 |
| Cc1c2c(nn1C)CSCc1cc(n(C)n1)CSc1cc(c3ccccc3c1)OCCCc1c(C(=O)O)n(C)c3c-2c(Cl)ccc13 [AZD5991] + C1CN(CCC1(C(=O)N[C@@H](CCO)C2=CC=C(C=C2)Cl)N)C3=NC=NC4=C3C=CN4 [Capivasertib] (first compound max 1 µM, 7x7, partner max 3 µM) | 0.527 | 0.409 | 0.2 | 0.175 | 0.149 | 0.297 |  | 0.352 | 1 | 0.868 | 0.182 | 0.201 | 0.13 | 0.236 | 0.825 | 0.329 | 0.194 | 0.248 | 0.694 | 0.992 |
| CN(CCO)CC[C@H](CSc1ccccc1)Nc1ccc(S(=O)(=O)NC(=O)c2ccc(N3CCC([C@@H](O)c4ccccc4-c4ccc(Cl)cc4)CC3)cc2)cc1S(=O)(=O)C(F)(F)F [AZD4320] + CN(C)CCCOc1ccc(-c2ccc3ncc4c(c3c2)n(C2CCOCC2)c(=O)n4C)cn1 [AZD0156] (first compound max 1 µM, 7x7, partner max 1 µM) | 0.164 | 1 | 0.115 | 0.598 | 0.0928 | 0.292 | 0.225 | 0.52 | 1 |  | 0.0875 | 0.122 | 0.371 | 0.169 | 0.747 | 0.43 | 0.655 | 0.647 | 0.973 | 0.936 |
